Measured values published in paper doi:10.1101/2023.03.24.534094v2 (biorxiv, 2023).
Read-outs that look alike come from different tables or passages of the source.

Columns and labels:
Assay in all cases: biochemical
CaMK2b = CaMK2b (Homo sapiens, UniProt Q13554)
OSR1 = OSR1 (Homo sapiens, UniProt O95747)
MARK4 = target: T1, MARK4 (Homo sapiens, UniProt Q96L34)
T1 sequence (Q96L34 1-752): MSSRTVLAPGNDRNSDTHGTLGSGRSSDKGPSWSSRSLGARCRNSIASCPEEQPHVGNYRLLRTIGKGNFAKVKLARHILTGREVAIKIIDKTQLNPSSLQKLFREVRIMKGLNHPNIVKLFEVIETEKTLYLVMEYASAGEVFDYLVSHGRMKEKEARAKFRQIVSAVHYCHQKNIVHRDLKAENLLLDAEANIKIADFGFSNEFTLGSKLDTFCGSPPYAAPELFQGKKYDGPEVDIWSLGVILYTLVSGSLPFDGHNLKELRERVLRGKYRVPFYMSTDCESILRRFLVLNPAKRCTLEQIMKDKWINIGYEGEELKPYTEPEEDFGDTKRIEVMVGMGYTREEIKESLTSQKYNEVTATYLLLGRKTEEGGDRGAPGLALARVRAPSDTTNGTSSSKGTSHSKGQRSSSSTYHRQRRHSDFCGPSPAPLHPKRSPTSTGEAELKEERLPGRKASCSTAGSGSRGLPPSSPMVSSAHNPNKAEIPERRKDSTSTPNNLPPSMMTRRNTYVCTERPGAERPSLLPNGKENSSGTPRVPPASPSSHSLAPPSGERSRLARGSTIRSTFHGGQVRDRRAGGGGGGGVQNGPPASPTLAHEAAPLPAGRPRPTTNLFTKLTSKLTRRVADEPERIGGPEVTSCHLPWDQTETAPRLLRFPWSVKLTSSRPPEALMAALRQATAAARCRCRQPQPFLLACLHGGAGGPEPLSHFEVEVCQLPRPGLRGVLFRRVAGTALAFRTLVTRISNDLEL

EpHA2 = EpHA2 (Homo sapiens, UniProt P29317)
MAP2K4 = target: T2, MAP2K4 (Homo sapiens, UniProt P45985)
T2 sequence (P45985 1-399): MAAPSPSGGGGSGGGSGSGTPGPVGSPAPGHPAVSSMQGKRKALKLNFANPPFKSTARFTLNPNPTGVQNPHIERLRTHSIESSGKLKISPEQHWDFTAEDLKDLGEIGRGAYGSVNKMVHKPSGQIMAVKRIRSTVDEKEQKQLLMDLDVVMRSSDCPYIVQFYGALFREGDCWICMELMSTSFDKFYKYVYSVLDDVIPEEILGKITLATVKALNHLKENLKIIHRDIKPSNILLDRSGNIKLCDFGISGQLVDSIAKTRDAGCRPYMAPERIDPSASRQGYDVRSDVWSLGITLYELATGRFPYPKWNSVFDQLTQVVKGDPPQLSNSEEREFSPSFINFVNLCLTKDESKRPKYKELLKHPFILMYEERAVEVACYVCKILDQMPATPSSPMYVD

DYRK1A = DYRK1A (Homo sapiens, UniProt Q13627)
CASK = target: T3, CASK (Homo sapiens, UniProt O14936)
T3 sequence (O14936 1-926): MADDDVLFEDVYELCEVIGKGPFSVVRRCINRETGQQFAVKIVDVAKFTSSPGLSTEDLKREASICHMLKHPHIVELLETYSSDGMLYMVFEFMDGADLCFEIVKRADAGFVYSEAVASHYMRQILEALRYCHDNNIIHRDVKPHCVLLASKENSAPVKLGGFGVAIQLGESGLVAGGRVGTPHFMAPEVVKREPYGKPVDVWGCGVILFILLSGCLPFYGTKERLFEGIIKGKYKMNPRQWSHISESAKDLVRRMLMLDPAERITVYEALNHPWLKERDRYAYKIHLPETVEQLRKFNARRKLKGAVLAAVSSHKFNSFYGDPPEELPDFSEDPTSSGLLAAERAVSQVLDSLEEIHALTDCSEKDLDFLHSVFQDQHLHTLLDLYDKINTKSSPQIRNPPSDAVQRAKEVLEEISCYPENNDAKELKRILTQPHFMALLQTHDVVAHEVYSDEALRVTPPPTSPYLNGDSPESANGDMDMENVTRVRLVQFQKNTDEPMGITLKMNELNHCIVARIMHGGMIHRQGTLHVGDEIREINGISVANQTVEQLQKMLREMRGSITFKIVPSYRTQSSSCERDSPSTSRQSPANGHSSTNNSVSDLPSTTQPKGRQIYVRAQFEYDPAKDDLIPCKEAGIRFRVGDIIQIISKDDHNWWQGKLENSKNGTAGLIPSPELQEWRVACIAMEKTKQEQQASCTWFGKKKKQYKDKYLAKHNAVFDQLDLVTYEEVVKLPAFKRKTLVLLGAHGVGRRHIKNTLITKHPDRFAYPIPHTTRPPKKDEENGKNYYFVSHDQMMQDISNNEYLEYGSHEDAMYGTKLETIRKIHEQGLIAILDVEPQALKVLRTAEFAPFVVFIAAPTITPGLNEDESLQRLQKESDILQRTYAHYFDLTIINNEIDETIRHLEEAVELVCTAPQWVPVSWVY

Chain of EpHA2 (P29317 whole entry): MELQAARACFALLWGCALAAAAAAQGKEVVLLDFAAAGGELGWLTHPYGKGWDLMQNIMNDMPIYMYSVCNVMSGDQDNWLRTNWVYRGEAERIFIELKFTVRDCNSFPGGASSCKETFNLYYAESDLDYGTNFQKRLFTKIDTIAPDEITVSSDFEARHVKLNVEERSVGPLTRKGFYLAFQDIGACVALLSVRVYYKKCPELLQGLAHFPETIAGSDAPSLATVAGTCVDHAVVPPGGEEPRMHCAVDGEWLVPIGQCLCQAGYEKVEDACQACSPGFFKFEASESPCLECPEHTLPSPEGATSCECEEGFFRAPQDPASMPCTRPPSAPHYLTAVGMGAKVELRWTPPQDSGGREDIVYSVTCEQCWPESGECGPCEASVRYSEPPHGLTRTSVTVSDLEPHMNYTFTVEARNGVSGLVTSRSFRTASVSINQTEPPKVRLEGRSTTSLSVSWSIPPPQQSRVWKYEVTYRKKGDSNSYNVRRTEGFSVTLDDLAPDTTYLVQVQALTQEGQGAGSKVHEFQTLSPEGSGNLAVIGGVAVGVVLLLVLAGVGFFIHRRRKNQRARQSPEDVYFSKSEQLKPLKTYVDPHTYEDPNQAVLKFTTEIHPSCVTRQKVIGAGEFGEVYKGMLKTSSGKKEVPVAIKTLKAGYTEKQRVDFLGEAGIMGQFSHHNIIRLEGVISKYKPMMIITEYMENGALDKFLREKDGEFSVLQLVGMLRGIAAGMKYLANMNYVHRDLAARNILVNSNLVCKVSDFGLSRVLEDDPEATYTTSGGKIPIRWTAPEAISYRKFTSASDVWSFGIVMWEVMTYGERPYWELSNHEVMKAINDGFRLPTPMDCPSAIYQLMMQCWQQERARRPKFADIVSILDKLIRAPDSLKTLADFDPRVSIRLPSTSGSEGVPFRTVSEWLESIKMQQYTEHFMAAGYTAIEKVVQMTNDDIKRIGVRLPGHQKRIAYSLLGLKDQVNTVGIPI
Chain of CaMK2b (Q13554 whole entry): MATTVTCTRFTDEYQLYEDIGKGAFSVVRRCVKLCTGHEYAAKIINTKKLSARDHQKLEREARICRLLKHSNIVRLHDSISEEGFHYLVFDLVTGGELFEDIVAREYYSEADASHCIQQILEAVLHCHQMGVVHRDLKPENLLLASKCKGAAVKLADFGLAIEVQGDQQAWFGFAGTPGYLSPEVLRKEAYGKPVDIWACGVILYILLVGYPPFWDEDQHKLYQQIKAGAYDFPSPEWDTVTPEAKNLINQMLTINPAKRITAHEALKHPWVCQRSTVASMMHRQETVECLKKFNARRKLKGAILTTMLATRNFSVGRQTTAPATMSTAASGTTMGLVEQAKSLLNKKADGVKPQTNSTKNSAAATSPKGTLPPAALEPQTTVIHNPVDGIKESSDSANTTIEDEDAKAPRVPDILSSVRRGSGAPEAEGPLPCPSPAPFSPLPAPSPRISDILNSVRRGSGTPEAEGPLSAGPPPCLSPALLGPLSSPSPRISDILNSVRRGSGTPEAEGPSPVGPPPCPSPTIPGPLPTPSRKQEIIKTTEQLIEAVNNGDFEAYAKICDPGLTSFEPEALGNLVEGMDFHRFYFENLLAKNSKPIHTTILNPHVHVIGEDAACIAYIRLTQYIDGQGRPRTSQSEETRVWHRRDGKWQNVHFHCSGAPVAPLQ
Chain of OSR1 (O95747 whole entry): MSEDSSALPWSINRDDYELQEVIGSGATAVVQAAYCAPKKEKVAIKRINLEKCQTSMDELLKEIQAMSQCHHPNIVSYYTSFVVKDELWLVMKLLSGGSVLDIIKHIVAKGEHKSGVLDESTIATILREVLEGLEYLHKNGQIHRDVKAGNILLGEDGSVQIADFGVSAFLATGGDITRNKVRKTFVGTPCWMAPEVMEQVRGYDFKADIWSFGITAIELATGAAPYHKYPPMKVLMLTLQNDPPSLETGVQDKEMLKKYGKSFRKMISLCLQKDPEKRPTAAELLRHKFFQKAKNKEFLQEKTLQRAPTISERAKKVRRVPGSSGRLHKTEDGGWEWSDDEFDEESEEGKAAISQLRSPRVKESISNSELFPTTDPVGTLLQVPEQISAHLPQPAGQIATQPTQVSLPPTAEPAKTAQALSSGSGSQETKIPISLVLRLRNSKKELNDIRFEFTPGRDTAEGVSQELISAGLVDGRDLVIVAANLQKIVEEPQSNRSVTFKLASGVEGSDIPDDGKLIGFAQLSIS

How did the ΔTm at 10 µM (CaMK2b; read-out: dTm 8) turn out when `CNc1ncc2cc(-c3cc(Cl)ccc3Cl)c(=O)n(CCCCN)c2n1` [compound 8, 8-(4-Aminobutyl)-6-(2,5-dichlorophenyl)-2-(methylamino)pyrido[2,3-d]pyrimidin-7(8H)-one] was run?
The ΔTm at 10 µM was 0.2 °C.

And the ΔTm at 10 µM (OSR1; read-out: dTm 8)?
Its ΔTm at 10 µM is 0.3 °C.

What about the ΔTm at 10 µM (MARK4; read-out: dTm 8) of the same compound?
Its ΔTm at 10 µM is 1 °C.

And the ΔTm at 10 µM (EpHA2; read-out: dTm 8)?
The ΔTm at 10 µM was 7.1 °C.

What about the ΔTm at 10 µM (MAP2K4; read-out: dTm 8) of the same compound?
The ΔTm at 10 µM was 2.7 °C.

What about the ΔTm at 10 µM (DYRK1A; read-out: dTm 8) of the same compound?
The ΔTm at 10 µM was -0.5 °C.

What about the ΔTm at 10 µM (CASK; read-out: dTm 8) of the same compound?
Its ΔTm at 10 µM is -0.2 °C.

Which ΔTm at 10 µM (CaMK2b; read-out: dTm 9) does the source give for `CNc1ncc2cc(-c3cc(C(F)(F)F)ccc3Cl)c(=O)n(CCCCN)c2n1` [compound 9, 8-(4-Aminobutyl)-6-(2-chloro-5-(trifluoromethyl)phenyl)-2-(methylamino)pyrido[2,3-d]pyrimidin-7(8H)-one] here?
Its ΔTm at 10 µM is 0.1 °C.

And the ΔTm at 10 µM (OSR1; read-out: dTm 9)?
Its ΔTm at 10 µM is 0.3 °C.

What about the ΔTm at 10 µM (MARK4; read-out: dTm 9) of the same compound?
Its ΔTm at 10 µM is 0 °C.

And the ΔTm at 10 µM (EpHA2; read-out: dTm 9)?
Its ΔTm at 10 µM is 4.8 °C.

And the ΔTm at 10 µM (MAP2K4; read-out: dTm 9)?
The ΔTm at 10 µM was 2.3 °C.

And the ΔTm at 10 µM (DYRK1A; read-out: dTm 9)?
Its ΔTm at 10 µM is -0.5 °C.

And the ΔTm at 10 µM (CASK; read-out: dTm 9)?
Its ΔTm at 10 µM is -0.1 °C.

With `CNc1ncc2cc(-c3cc(Cl)ccc3Br)c(=O)n(CCCCN)c2n1` [compound 10, 8-(4-Aminobutyl)-6-(2-bromo-5-chlorophenyl)-2-(methylamino)pyrido[2,3-d]pyrimidin-7(8H)-one] as the compound, how does the ΔTm at 10 µM (CaMK2b; read-out: dTm 10) read?
Its ΔTm at 10 µM is 0.3 °C.

And the ΔTm at 10 µM (OSR1; read-out: dTm 10)?
Its ΔTm at 10 µM is -0.2 °C.

And the ΔTm at 10 µM (MARK4; read-out: dTm 10)?
The ΔTm at 10 µM was 1.7 °C.

And the ΔTm at 10 µM (EpHA2; read-out: dTm 10)?
Its ΔTm at 10 µM is 7.4 °C.

What about the ΔTm at 10 µM (MAP2K4; read-out: dTm 10) of the same compound?
Its ΔTm at 10 µM is 3 °C.

What about the ΔTm at 10 µM (DYRK1A; read-out: dTm 10) of the same compound?
The ΔTm at 10 µM was -0.6 °C.

What about the ΔTm at 10 µM (CASK; read-out: dTm 10) of the same compound?
Its ΔTm at 10 µM is 0 °C.

`CNc1ncc2cc(-c3cc(Br)ccc3Br)c(=O)n(CCCCN)c2n1` [compound 11, 8-(4-Aminobutyl)-6-(2,5-dibromophenyl)-2-(methylamino)pyrido[2,3-d]pyrimidin-7(8H)-one] was tested. Which ΔTm at 10 µM (CaMK2b; read-out: dTm 11) did it give?
Its ΔTm at 10 µM is 0.3 °C.

What about the ΔTm at 10 µM (OSR1; read-out: dTm 11) of the same compound?
The ΔTm at 10 µM was 0.4 °C.

What about the ΔTm at 10 µM (MARK4; read-out: dTm 11) of the same compound?
The ΔTm at 10 µM was 1.8 °C.

And the ΔTm at 10 µM (EpHA2; read-out: dTm 11)?
Its ΔTm at 10 µM is 6.4 °C.

And the ΔTm at 10 µM (MAP2K4; read-out: dTm 11)?
Its ΔTm at 10 µM is 3 °C.

What about the ΔTm at 10 µM (DYRK1A; read-out: dTm 11) of the same compound?
Its ΔTm at 10 µM is -0.3 °C.

And the ΔTm at 10 µM (CASK; read-out: dTm 11)?
The ΔTm at 10 µM was -0.3 °C.

What does the source list for `CNc1ncc2cc(-c3cc(F)c(-c4cccc(C)n4)cc3F)c(=O)n(CCCCN)c2n1` [compound 12, 8-(4-Aminobutyl)-6-(2,5-difluoro-4-(6-methylpyridin-2-yl)phenyl)-2-(methylamino)pyrido[2,3-d]pyrimidin-7(8H)-one]?
ΔTm at 10 µM (CaMK2b; read-out: dTm 12): -0.4 °C; ΔTm at 10 µM (OSR1; read-out: dTm 12): -0.2 °C; ΔTm at 10 µM (MARK4; read-out: dTm 12): 4.5 °C; ΔTm at 10 µM (EpHA2; read-out: dTm 12): 3.9 °C; ΔTm at 10 µM (MAP2K4; read-out: dTm 12): 5.4 °C; ΔTm at 10 µM (DYRK1A; read-out: dTm 12): 0.1 °C; ΔTm at 10 µM (CASK; read-out: dTm 12): -0.2 °C
